Results on eight compounds are retold here after publication PMC6656724 (Communications Biology, 2019).

Bounds are passed on as bounds.

Data set [1] can be described thus: Stability in mouse hepatic microsomes. The following applies: for half-life at 1 µM: mouse, pooled liver microsomes. In general terms: Liver microsomes are a subcellular fraction often used to study metabolism.
Description: 3.6.3 Compound stability in mouse hepatic microsomes and rat hepatocytes
A microsomal stability assay was performed as described in the BioFocus Standard
Operating Procedure ADME-SOP-83, using pooled hepatic mouse
Test and control compounds (midazolam,
dextromethorphan), were prepared in DMSO and incubated at an initial concentration
in the presence of the cofactor, NADPH (1 mM). Aliquots were removed at 0, 5, 10,
20 and 40 minutes for termination of reactions and compound extraction with ACN
containing an analytical internal standard. Samples were centrifuged and the
supernatant fractions analysed for parent compound by mass spectrometry (LC-
MS/MS). The amount of compound remaining (expressed as %) was determined from
the MS response in each sample relative to that in the T = 0 samples (normalised for
internal standard). Ln plots of the % remaining were used to determine the half-life
the slope of the Ln % remaining vs time curve. The in vitro intrinsic clearance Clint
Data set [2] concerns the target T1, Pseudomonas fluorescens KMO (PfKMO) (Pseudomonas fluorescens, UniProt Q84HF5, C252S/C461S).
T1 construct: made in house; host or cells: E. coli BL21 (DE3)
Description: biochemical. Put shortly: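 NADPH consumption followed at 340 nm, initial rates from linear fits, triplicate. IC50 from % inhibition vs inhibitor concentration fitted to the Morrison equation.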

For a further data set, the target named is T2, Homo sapiens KMO (HsKMO) (Homo sapiens, UniProt O15229).
T2 construct: GST; made in house
Description: KMO inhibition assay, NADPH oxidation at 340 nm (HsKMO). The class given is biochemical.

[3] abbreviates: Half-life Mean, mouse hepatic microsomes.
[4] abbreviates: Half-life n=1, mouse hepatic microsomes.
The mark [5] stands for this setting: Half-life n=2, mouse hepatic microsomes.

What is called half-life is how long it takes for the measured level to halve. Low readings indicate rapid decline, high ones slow decline. By IC50 is commonly meant the concentration that inhibits the measured activity by half.

T1 sequence (Q84HF5 whole entry C252S/C461S): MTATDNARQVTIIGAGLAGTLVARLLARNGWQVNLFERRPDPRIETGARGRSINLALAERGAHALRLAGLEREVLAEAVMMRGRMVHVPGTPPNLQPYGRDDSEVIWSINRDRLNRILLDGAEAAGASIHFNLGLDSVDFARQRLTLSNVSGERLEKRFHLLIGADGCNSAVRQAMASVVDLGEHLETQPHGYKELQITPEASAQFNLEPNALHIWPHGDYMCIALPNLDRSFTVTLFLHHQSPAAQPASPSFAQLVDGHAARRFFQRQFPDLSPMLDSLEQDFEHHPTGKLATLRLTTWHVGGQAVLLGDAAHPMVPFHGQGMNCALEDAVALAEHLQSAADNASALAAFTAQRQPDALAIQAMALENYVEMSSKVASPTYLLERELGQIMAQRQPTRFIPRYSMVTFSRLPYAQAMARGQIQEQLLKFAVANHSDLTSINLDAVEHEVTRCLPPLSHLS
T2 sequence (O15229 whole entry): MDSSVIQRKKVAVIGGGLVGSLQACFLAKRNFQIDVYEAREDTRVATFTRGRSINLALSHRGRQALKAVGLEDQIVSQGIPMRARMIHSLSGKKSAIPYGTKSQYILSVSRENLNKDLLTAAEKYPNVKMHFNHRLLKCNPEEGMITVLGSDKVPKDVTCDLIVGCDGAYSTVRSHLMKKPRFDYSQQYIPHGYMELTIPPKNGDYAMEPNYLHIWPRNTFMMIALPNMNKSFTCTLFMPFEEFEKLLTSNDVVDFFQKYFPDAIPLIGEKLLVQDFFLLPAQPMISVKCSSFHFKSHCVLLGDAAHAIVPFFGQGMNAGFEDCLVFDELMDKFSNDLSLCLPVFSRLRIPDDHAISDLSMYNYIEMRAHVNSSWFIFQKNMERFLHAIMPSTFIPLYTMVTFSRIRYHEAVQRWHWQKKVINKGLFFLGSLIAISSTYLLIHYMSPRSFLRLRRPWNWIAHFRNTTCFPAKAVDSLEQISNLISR

With `Cc1cc2c(c(C)c1Cl)N(CC(=O)O)C(=O)CO2` [compound 1, (6-chloro-5,7-dimethyl-3-oxo-2,3-dihydro-4H-1,4-benzoxazin-4-yl) acetic acid], the Mean intrinsic clearance in data set [1] (mouse hepatic microsomes) is < 28 µL/min/mg microsome protein. Further, the half-life at 1 µM in data set [1] (setting [3]), in data set [1] (setting [4]) and in data set [1] (setting [5]) was over 1.67 h throughout.
In the case of `COC(=O)CN1C(=O)COc2cc(C)c(Cl)c(C)c21` [1a], the half-inhibitory concentration (IC50) in data set [2] was over 500 µM; on Homo sapiens KMO (HsKMO) it was about 500 µM.
The matching figures for `CCOC(=O)CN1C(=O)COc2cc(C)c(Cl)c(C)c21` [1b]: over 300 µM and over 500 µM.
`CC(CSc1ccc(Cl)cc1)C(=O)O` (stereo not drawn) [compound 6, 3-[(4-chlorophenyl)thio]-2-methylpropanoic acid]: the IC50 in data set [2] was 85.6 ± 4.4 µM; at Homo sapiens KMO (HsKMO), 68.6 µM. In addition, the Mean intrinsic clearance in data set [1] (mouse hepatic microsomes) is < 28 µL/min/mg microsome protein. Further, the half-life at 1 µM in data set [1] (setting [3]), in data set [1] (setting [4]) and in data set [1] (setting [5]) was over 1.67 h throughout.
`Cc1cc2c(c(C)c1Cl)N(CC(=O)OC(C)C)C(=O)CO2` [1c]: the half-inhibitory concentration (IC50) (in data set [2]; on Homo sapiens KMO (HsKMO)) was over 300 µM throughout.
Regarding `Cc1cc2c(c(C)c1Cl)N(Cc1nn[nH]n1)C(=O)CO2` [1h, 6-chloro-5,7-dimethyl-4-(2H-tetrazol-5-ylmethyl)-1,4-benzoxazin-3-one], the half-maximal inhibitory concentration (IC50) in data set [2] was 17 ± 0.43 µM; at Homo sapiens KMO (HsKMO), 1.28 ± 0.08 µM.
In the case of `Cn1c(C(=O)N[C@@H](C(=O)O)c2ccccc2)cc2cc(F)ccc21` [compound 5, (R)-2-(5-fluoro-1-methyl-1H-indole-2-carboxamido)-2-phenylacetic acid], the IC50 in data set [2] was 123 ± 8 µM; at Homo sapiens KMO (HsKMO), 55.3 µM. In addition, the Mean intrinsic clearance in data set [1] (mouse hepatic microsomes) is on record as < 28 µL/min/mg microsome protein. Besides, the half-life at 1 µM in data set [1] (setting [3]), in data set [1] (setting [4]) and in data set [1] (setting [5]) was over 1.67 h each time.
Take `Oc1ccc(-c2csc3nc(-c4ccccc4)nn23)c(O)c1` [compound 3, 4-(2-phenyl[1,2,4]triazolo[5,1-b][1,3]thiazol-6-yl)benzene-1,3-diol]: the IC50 in data set [2] was 74.7 ± 8 µM; at Homo sapiens KMO (HsKMO), 2.3 µM. The Mean intrinsic clearance in data set [1] (mouse hepatic microsomes) is given as 49 µL/min/mg microsome protein. Besides, the half-life at 1 µM is 0.983 h in data set [1] (setting [3]), 0.8 h in data set [1] (setting [4]) and 1.15 h in data set [1] (setting [5]).
